Assays:
PRMT7 [1] = biological target: T1, PRMT7 (Homo sapiens, UniProt Q9NVM4); assay: radiometric SPA methyltransferase assay, 3H-SAM and H2B ([…]); format: biochemical
T1 sequence (Q9NVM4 1-692): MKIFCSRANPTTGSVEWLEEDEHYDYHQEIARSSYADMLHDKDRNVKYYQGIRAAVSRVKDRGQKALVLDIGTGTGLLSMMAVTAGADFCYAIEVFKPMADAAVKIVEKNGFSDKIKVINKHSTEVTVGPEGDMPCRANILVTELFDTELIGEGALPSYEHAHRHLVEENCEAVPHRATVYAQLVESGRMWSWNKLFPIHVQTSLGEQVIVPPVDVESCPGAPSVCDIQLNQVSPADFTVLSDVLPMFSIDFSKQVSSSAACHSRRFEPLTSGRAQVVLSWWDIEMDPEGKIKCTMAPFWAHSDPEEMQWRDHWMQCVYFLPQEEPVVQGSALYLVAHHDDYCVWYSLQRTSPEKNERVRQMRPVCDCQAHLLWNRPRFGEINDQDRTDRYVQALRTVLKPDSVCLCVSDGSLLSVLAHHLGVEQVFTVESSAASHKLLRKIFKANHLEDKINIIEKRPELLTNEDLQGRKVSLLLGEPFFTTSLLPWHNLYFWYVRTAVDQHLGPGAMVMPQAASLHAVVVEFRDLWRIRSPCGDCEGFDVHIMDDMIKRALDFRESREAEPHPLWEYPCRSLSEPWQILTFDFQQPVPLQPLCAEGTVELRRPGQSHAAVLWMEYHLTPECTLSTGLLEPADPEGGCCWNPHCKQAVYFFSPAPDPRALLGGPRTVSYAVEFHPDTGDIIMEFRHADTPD

PRMT7 [2] = biological target: T1, PRMT7; assay: radiometric SPA methyltransferase assay (negative control compound, weak); format: biochemical
BCDIN3D = biological target: T2, BCDIN3D (Homo sapiens, UniProt Q7Z5W3); assay: biochemical; set-up: radiometric methyltransferase assay with tritiated SAM, IC50
T2 sequence (Q7Z5W3 1-292): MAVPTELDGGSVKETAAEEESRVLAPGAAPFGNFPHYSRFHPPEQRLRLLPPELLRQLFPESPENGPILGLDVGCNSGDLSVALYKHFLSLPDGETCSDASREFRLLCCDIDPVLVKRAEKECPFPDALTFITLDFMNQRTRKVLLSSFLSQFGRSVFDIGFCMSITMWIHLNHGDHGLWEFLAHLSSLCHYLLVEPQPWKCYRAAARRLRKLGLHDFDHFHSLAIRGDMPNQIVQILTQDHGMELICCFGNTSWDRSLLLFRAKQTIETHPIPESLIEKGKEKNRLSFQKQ

PRMT6 = PRMT6 (Homo sapiens, UniProt Q96LA8); assay: biochemical; set-up: radiometric methyltransferase assay with tritiated SAM, IC50
PRMT1 = PRMT1 (Homo sapiens, UniProt Q99873); assay: biochemical; set-up: radiometric methyltransferase assay with tritiated SAM, IC50
DOT1L = DOT1L (Homo sapiens, UniProt Q8TEK3); assay: biochemical; set-up: radiometric methyltransferase assay with tritiated SAM, IC50
PRMT9 = biological target: T3, PRMT9 (Homo sapiens, UniProt Q6P2P2); assay: biochemical; set-up: radiometric methyltransferase assay with tritiated SAM, IC50
T3 sequence (Q6P2P2 1-845): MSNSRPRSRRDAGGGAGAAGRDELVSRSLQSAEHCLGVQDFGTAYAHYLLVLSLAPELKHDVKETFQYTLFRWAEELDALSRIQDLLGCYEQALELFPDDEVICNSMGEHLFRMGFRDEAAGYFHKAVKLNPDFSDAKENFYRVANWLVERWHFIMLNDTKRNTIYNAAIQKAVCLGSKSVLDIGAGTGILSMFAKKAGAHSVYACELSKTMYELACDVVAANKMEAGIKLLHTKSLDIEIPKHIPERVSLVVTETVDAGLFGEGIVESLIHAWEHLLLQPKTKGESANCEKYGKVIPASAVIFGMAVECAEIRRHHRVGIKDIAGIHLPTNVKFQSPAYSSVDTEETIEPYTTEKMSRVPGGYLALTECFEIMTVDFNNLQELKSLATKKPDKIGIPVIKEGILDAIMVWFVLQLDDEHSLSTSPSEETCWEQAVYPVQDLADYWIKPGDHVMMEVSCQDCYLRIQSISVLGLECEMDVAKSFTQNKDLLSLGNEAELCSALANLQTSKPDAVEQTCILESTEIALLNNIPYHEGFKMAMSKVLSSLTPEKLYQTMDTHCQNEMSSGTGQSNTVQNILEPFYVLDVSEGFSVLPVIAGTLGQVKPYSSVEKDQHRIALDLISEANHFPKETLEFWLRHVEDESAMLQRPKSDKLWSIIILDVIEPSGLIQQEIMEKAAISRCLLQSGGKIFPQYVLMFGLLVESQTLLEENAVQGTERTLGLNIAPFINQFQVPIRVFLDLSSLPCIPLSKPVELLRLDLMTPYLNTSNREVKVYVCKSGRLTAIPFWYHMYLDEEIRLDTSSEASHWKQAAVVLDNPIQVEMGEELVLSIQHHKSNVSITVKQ

PRMT7 [3] = biological target: T1, PRMT7; assay: SPR kinetics (Biacore T200); also radiometric SPA IC50 […]; format: binding; set-up: Bio-PRMT7 (amino acids 1–692)

Sequence of DOT1L (Q8TEK3 whole entry): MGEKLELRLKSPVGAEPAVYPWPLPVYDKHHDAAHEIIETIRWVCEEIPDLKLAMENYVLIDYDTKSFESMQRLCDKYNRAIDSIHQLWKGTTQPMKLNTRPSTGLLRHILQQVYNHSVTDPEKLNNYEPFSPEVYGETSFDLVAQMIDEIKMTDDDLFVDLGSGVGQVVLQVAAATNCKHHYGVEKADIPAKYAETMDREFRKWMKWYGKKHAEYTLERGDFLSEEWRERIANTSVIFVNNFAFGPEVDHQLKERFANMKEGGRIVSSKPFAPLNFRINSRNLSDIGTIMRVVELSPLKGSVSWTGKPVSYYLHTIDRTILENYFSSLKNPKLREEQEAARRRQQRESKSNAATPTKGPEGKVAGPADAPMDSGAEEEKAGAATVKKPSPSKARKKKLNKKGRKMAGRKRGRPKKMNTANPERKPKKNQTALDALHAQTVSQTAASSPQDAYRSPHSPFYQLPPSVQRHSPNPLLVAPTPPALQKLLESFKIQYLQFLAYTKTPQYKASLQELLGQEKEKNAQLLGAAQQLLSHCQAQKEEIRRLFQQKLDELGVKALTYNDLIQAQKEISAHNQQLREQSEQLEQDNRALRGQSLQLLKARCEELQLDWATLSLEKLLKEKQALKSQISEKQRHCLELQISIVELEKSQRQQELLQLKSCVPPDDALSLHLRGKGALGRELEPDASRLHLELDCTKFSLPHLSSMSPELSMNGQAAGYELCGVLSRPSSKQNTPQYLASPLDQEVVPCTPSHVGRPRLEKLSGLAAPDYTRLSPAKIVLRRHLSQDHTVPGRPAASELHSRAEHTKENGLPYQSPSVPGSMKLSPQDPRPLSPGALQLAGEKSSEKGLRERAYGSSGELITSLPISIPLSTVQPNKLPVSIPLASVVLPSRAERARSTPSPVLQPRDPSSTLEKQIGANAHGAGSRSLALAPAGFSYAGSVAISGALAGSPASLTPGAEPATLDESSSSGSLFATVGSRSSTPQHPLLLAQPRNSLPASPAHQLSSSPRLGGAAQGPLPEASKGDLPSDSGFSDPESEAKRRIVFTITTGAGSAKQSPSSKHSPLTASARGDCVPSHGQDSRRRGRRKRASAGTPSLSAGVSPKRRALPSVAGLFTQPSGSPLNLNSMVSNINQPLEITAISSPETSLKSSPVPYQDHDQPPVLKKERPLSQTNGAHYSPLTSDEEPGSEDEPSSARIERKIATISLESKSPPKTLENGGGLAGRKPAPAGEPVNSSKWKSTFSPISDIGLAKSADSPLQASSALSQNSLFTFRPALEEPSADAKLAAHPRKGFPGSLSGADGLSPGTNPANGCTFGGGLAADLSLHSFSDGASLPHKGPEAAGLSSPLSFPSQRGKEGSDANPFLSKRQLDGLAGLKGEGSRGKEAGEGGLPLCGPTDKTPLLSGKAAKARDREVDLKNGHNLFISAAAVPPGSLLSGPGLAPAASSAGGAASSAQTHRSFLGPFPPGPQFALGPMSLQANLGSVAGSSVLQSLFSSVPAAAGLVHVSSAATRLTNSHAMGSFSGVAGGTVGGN
Sequence of PRMT1 (Q99873 whole entry): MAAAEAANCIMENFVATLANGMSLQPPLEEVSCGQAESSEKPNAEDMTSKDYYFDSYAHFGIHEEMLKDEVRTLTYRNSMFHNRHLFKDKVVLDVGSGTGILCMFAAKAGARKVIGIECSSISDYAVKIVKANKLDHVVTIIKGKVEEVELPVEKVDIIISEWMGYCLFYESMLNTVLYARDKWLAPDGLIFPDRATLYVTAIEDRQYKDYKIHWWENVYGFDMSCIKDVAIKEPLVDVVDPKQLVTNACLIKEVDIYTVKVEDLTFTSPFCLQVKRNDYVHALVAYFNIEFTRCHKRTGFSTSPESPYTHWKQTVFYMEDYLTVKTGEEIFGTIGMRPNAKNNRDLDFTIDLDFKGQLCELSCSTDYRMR
Sequence of PRMT6 (Q96LA8 whole entry): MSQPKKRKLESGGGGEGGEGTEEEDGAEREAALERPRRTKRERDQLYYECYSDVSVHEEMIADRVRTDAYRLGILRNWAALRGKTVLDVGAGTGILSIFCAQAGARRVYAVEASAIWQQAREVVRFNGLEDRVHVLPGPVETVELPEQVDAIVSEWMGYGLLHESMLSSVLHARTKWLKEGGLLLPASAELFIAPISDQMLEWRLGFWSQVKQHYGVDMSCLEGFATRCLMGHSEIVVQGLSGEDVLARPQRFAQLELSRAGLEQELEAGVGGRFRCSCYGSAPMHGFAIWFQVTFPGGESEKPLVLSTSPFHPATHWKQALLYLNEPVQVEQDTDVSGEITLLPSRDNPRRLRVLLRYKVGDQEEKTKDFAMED

## Nc1ncnc2c1ncn2[C@@H]1O[C@H](CSCCCNCc2cccc(-c3ccc(Cl)cc3)c2)[C@@H](O)[C@H]1O [SGC8172]
PRMT7 [1]
  IC50: < 2.5 nM

## CC1(C)O[C@@H]2[C@H](O1)[C@@H](CSCCCCNCc1cccc(-c3ccc(Cl)cc3)c1)O[C@H]2n1cnc2c(N)ncnc21 [SGC8158N]
PRMT7 [2]
  IC50: 14 ± 2 µM

## Nc1ncnc2c1ncn2[C@@H]1O[C@H](CSCCCCNCc2cccc(-c3ccc(Cl)cc3)c2)[C@@H](O)[C@H]1O [SGC8158]
BCDIN3D
  IC50: 1100 nM
PRMT6
  IC50: 15 µM
PRMT1
  IC50: 12 µM
DOT1L
  IC50: 1700 nM
PRMT9
  IC50: 160 nM
PRMT7 [3]
  Kd: 6.4 ± 1.2 nM

Source: PMC7224190, “Pharmacological inhibition of PRMT7 links arginine monomethylation to the cellular stress response” (Nature Communications, 2020)
